Data: ChEMBL document CHEMBL1151063, “Synthesis and antibacterial activity of 2-functionalized-vinyl 1-methylcarbapenems and related compounds” (1993)
≈ marks a conversion by molar mass, not a printed value.

Assays:
Assay type in all cases: functional
[1] = tested on: Staphylococcus aureus; test: Antibacterial activity against Staphylococcus aureus FDA JC-1
[2] = tested on: Pseudomonas aeruginosa; test: Antibacterial activity against Pseudomonas aeruginosa SR24
[3] = tested on: Enterococcus faecalis; test: Antibacterial activity against Streptococcus faecalis SR 1004
[4] = tested on: Escherichia coli; test: Antibacterial activity against Escherichia coli NIHJ JC-2
[5] = tested on: Proteus vulgaris; test: Minimum inhibitory concentration for antibacterial activity against Proteus vulgaris CN-329
[6] = tested on: Staphylococcus aureus; test: Minimum inhibitory concentration for antibacterial activity against low resistant group of methicillin-resistant Staphylococcus aureus SR-3131(LR)
[7] = tested on: Enterobacter cloacae; test: Minimum inhibitory concentration for antibacterial activity against Enterobacter cloacae AI 3047
[8] = tested on: Staphylococcus aureus; test: Minimum inhibitory concentration for antibacterial activity against high resistant group of methicillin-resistant Staphylococcus aureus SR-3626(HR)
[9] = tested on: Serratia marcescens; test: Minimum inhibitory concentration for antibacterial activity against Serratia marcescens A13880
[10] = tested on: Proteus vulgaris; test: Minimum inhibitory concentration for antibacterial activity against Proteus vulgaris CN-329, activity expressed as MIC

Row | SMILES | MIC [1] | MIC [2] | MIC [3] | MIC [4] | MIC [5] | MIC [6] | MIC [7] | MIC [8] | MIC [9] | MIC [10]
1 | C[C@@H](O)[C@H]1C(=O)N2C(C(=O)O)=C(SCCNC=N)C[C@H]12 [IMIPENEM ANHYDROUS] | 0.006 mg/L (≈ 0.02 µM) | 1.6 mg/L (≈ 5.34 µM) | 1.6 mg/L (≈ 5.34 µM) | 0.1 mg/L (≈ 0.334 µM) | 0.4 mg/L (≈ 1.34 µM) | 0.05 mg/L (≈ 0.167 µM) | 0.4 mg/L (≈ 1.34 µM) | 50 mg/L (≈ 167 µM) | 0.8 mg/L (≈ 2.67 µM) | 
2 | C/C(=C\C1=C(C(=O)[O-])N2C(=O)[C@H]([C@@H](C)O)[C@H]2[C@H]1C)C[n+]1ccccc1 | 0.02 mg/L (≈ 0.0584 µM) | 6.3 mg/L (≈ 18.4 µM) | 0.8 mg/L (≈ 2.34 µM) | 0.1 mg/L (≈ 0.292 µM) |  |  |  |  |  | 
3 | C[C@@H](O)[C@H]1C(=O)N2C(C(=O)[O-])=C(/C=C/CSc3nncs3)[C@H](C)[C@H]12.[Na+] | 0.02 mg/L | 100 mg/L | 1.6 mg/L | 3.1 mg/L |  |  |  |  |  | 
4 | C[C@@H](O)[C@H]1C(=O)N2C(C(=O)[O-])=C(/C=C/C[n+]3ccccc3)[C@H](C)[C@H]12 | 0.006 mg/L (≈ 0.0183 µM) | 1.6 mg/L (≈ 4.87 µM) | 0.4 mg/L (≈ 1.22 µM) | 0.05 mg/L (≈ 0.152 µM) | 0.2 mg/L (≈ 0.609 µM) | 0.05 mg/L (≈ 0.152 µM) | 0.2 mg/L (≈ 0.609 µM) | 50 mg/L (≈ 152 µM) | 0.8 mg/L (≈ 2.44 µM) | 
5 | C[C@@H]([O-])[C@H]1C(=O)N2C(C(=O)[O-])=C(/C=C/C[N+]34CCC(CC3)CC4)[C@H](C)[C@H]12.[Na+] | 0.02 mg/L | 50 mg/L | 0.8 mg/L | 0.2 mg/L |  |  |  |  |  | 
6 | C[C@@H](O)[C@H]1C(=O)N2C(C(=O)[O-])=C(/C=C/c3cccc[n+]3C)[C@H](C)[C@H]12 | 0.1 mg/L (≈ 0.305 µM) | 50 mg/L (≈ 152 µM) | 6.3 mg/L (≈ 19.2 µM) | 1.6 mg/L (≈ 4.87 µM) |  |  |  |  |  | 
7 | C[C@@H]([O-])[C@H]1C(=O)N2C(C(=O)[O-])=C(/C=C/Cn3cc[n+]4ccccc34)[C@H](C)[C@H]12.[Na+] | 0.02 mg/L | 25 mg/L | 0.8 mg/L | 0.1 mg/L |  |  |  |  |  | 
8 | C[C@@H](O)[C@H]1C(=O)N2C(C(=O)[O-])=C(/C=C/c3cc[n+](C)cc3)[C@H](C)[C@H]12 | 0.05 mg/L (≈ 0.152 µM) | 25 mg/L (≈ 76.1 µM) | 1.6 mg/L (≈ 4.87 µM) | 0.4 mg/L (≈ 1.22 µM) |  |  |  |  |  | 
9 | C[C@@H](O)[C@H]1C(=O)N2C(C(=O)[O-])=C(C[n+]3ccccc3)[C@H](C)[C@H]12 | < 0.006 mg/L | 1.6 mg/L (≈ 5.29 µM) | 6.3 mg/L (≈ 20.8 µM) | 0.1 mg/L (≈ 0.331 µM) |  | 0.1 mg/L (≈ 0.331 µM) | 0.2 mg/L (≈ 0.662 µM) | 50 mg/L (≈ 165 µM) | 1.6 mg/L (≈ 5.29 µM) | 0.4 mg/L (≈ 1.32 µM)
10 | C[C@@H](O)[C@H]1C(=O)N2C(C(=O)[O-])=C(C[n+]3cccc(C(N)=O)c3)[C@H](C)[C@H]12 | 0.02 mg/L (≈ 0.0579 µM) | 1.6 mg/L (≈ 4.63 µM) | 25 mg/L (≈ 72.4 µM) | 0.4 mg/L (≈ 1.16 µM) |  |  |  |  |  | 
11 | C[C@@H](O)[C@H]1C(=O)N2C(C(=O)[O-])=C(C[n+]3ccc(C(N)=O)cc3)[C@H](C)[C@H]12 | 0.02 mg/L (≈ 0.0579 µM) | 1.6 mg/L (≈ 4.63 µM) | 25 mg/L (≈ 72.4 µM) | 0.4 mg/L (≈ 1.16 µM) |  |  |  |  |  | 

More lines, in order of falling MIC [1], values ahead:

Row | MIC [1] | MIC [2] | MIC [3] | MIC [4] | SMILES | MIC [5] | MIC [6] | MIC [7] | MIC [8] | MIC [9] | MIC [10]
12 | 0.02 mg/L | 50 mg/L | 1.6 mg/L | 0.2 mg/L | C[C@@H](O)[C@H]1C(=O)N2C(C(=O)[O-])=C(/C=C/COC(N)=O)[C@H](C)[C@H]12.[Na+] |  |  |  |  |  | 
13 | 0.01 mg/L (≈ 0.0305 µM) | 25 mg/L (≈ 76.1 µM) | 0.2 mg/L (≈ 0.609 µM) | 0.1 mg/L (≈ 0.305 µM) | C[C@@H](O)[C@H]1C(=O)N2C(C(=O)[O-])=C(/C=C/c3ccc[n+](C)c3)[C@H](C)[C@H]12 |  |  |  |  |  | 
14 | 0.01 mg/L (≈ 0.0316 µM) | 1.6 mg/L (≈ 5.06 µM) | 12.5 mg/L (≈ 39.5 µM) | 0.2 mg/L (≈ 0.632 µM) | Cc1ccc[n+](CC2=C(C(=O)[O-])N3C(=O)[C@H]([C@@H](C)O)[C@H]3[C@H]2C)c1 |  |  |  |  |  | 
15 | 0.01 mg/L (≈ 0.0271 µM) | 1.6 mg/L (≈ 4.33 µM) | 6.3 mg/L (≈ 17.1 µM) | 0.2 mg/L (≈ 0.541 µM) | C[C@@H](O)[C@H]1C(=O)N2C(C(=O)[O-])=C(C[n+]3ccc(-c4cnco4)cc3)[C@H](C)[C@H]12 |  |  |  |  |  | 
16 | 0.01 mg/L | 12.5 mg/L | 0.4 mg/L | 0.2 mg/L | C[C@@H]([O-])[C@H]1C(=O)N2C(C(=O)[O-])=C(/C=C/CSc3cc[n+](C)cc3)[C@H](C)[C@H]12.[Na+] |  |  |  |  |  | 
17 | 0.006 mg/L (≈ 0.0189 µM) | 1.6 mg/L (≈ 5.04 µM) | 6.3 mg/L (≈ 19.9 µM) | 0.2 mg/L (≈ 0.63 µM) | C[C@@H](O)[C@H]1C(=O)N2C(C(=O)[O-])=C(C[n+]3cccc(N)c3)[C@H](C)[C@H]12 |  |  |  |  |  | 
